Reference: paper PMC4805166, “Synthetic Cyclolipopeptides Selective against Microbial, Plant and Animal Cell Targets by Incorporation of D-Amino Acids or Histidine” (PLoS ONE, 2016)
Several values for one entry are separate records, joined by “and”; a condition that tells them apart may be missing. Identical values can stand only once. Like-named read-outs stand apart in the source and are kept apart here. Where a SMILES comes first, the peptide text is derived from it. Side-chain parts run from the residue outwards. [ ]: non-standard residue; d: D form. The star is where a group is joined. Hexanoyl = CCCCCC(=O)*; Butyryl = CCCC(=O)*

Key:
[1] = test system: Erwinia amylovora PMV6076; assay: MIC, in vitro growth inhibition; assay type: cell-based; conditions: TSB, 25°C, 48 h, OD 600 nm; tested at 3.1, 6.2, 12.5, 25, 50 μM; three replicates, experiment repeated twice; MIC = lowest concentration with no growth
Summary of the method: (§1)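 Peptide dilutions (stocks 500–31.1 μM) mixed 1:10 with 10^8 CFU/mL bacterial suspension in TSB. Incubated 25 °C, OD600 read hourly for 48 h, triplicates, repeated twice. MIC: lowest concentration with no growth at end.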

[2] = test system: Fusarium oxysporum f. sp. lycopersici FOL 3 race 2; assay: MIC, antifungal growth inhibition; assay type: cell-based
Summary of the method: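 Microconidia are grown on PDA at 25 °C and adjusted to 10^4 conidia/mL. Peptide stocks of 500, 250, 125, 62.5 and 31.1 µM (stock, not final) are mixed with conidia in double-concentrated PDB with 0.003% chloramphenicol, in triplicate, and incubated at 20 °C. OD600 is read every 2 h for seven days, and MIC is the lowest concentration with no growth at the end.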

[3] = test system: erythrocyte suspensions of horse blood; conditions: horse erythrocytes 5% vol/vol, TRIS buffer pH 7.2, 1 h at 37°C, absorbance 540 nm, relative to melittin 100 μM, ± confidence interval (α = 0.05); for Hemolysis (%) 150 µM: 150 µM peptide; for Hemolysis (%) 250 µM: 250 µM peptide;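 for all read-outs here: Read-out is hemoglobin release into the supernatant, with a buffer-only blank subtracted as the 0% baseline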
Description: Blood was centrifuged at 6000g for 5 min, washed three times with TRIS buffer (10 mM TRIS, 150 mM NaCl, pH 7.2) and diluted.
Compounds were solubilized in TRIS buffer and mixed with horse erythrocytes and the final concentrations tested were 250 and 150 μM. The mixture was incubated under continuous shaking for 1 h at 37°C. Then, the tubes were centrifuged at 3500g for 10 min, 80 μL aliquots of the supernatant transferred to 100-well microplates (Bioscreen), diluted with 80 μL water, and the absorbance measured at 540 nm (Bioscreen). Complete hemolysis was obtained by the addition of melittin at 100 μM (Sigma-Aldrich Corporation, Madrid, Spain). The percentage of hemolysis (H) was calculated using the equation: H = 100×[(Op−Ob)/(Om−Ob)], where Op was the density for a given compound concentration, Ob for the buffer, and Om for the melittin positive control.

[4] = test system: E. amylovora, P. syringae pv. syringae, X. axonopodis pv. vesicatoria and F. oxysporum; assay type: cell-based; conditions: three of the four pathogens tested
Description: The following plant pathogenic bacterial strains were used: Erwinia amylovora PMV6076 (Institut National de la Recherche Agronomique, Angers, France), Pseudomonas syringae pv. syringae EPS94 (Institut de Tecnologia Agroalimentària, Universitat de Girona, Spain) and Xanthomonas axonopodis pv. vesicatoria 2133–2 (Instituto Valenciano de Investigaciones Agrarias, Valencia, Spain). All bacteria were stored in Luria Bertani (LB) broth supplemented with glycerol (20%) and maintained at -80°C. Bacteria were scrapped from LB agar after growing for 24–48 h at 25°C. The cell material was suspended in sterile water to obtain a suspension of 10^8 CFU mL^-1.
Fusarium oxysporum f. sp. lycopersici FOL 3 race 2 (ATCC 201829, American Type Culture Collection) was used as fungal pathogen. The strain was cultured on potato dextrose agar (PDA) plates (Difco) and microconidia were obtained after growth at 25°C. The concentration of conidia was determined using a hemacytometer and adjusted to 10^4 conidia mL^-1.
Lyophilized peptides were solubilized in sterile Milli-Q water to a final concentration of 1 mM and filter sterilized through a 0.22-μm pore filter. For minimum inhibitory concentration (MIC) assessment, dilutions of the compounds were made to obtain a stock concentration of […]. For antibacterial activity twenty microlitres of each dilution were mixed in a microtiter plate well with 20 μL of the corresponding suspension of the bacterial indicator, 160 μL of Trypticase Soy Broth (TSB) (BioMèrieux, France) to a total volume of 200 μL. For antifungal activity 20 μL of each stock solution were mixed in a microtiter plate well with 80 μL of the corresponding suspension of the fungal pathogen and 100 μL of double concentrated PDB to a total volume of 200 μL containing 0.003% w/v of choramphenicol.
Three replicates for each strain, compound and concentration were used. Microbial growth was determined by optical density measurement at 600 nm (Bioscreen C, Labsystem, Helsinki, Finland). For antibacterial activity microplates were incubated at 25°C with 20 sec shaking before hourly absorbance measurement for 48 h. For antifungal activity microplates were incubated at 20°C with 1 min shaking before absorbance measurement that were done every two hours during seven days. The experiment was repeated twice. The MIC was taken as the lowest compound concentration with no growth at the end of the experiment.

[5] = test system: Xanthomonas axonopodis pv. vesicatoria 2133–2; assay type: cell-based; conditions: TSB, 25°C, 48 h, OD 600 nm; tested at 3.1, 6.2, 12.5, 25, 50 μM; three replicates, experiment repeated twice; MIC = lowest concentration with no growth
Summary of the method: as §1

[6] = test system: Pseudomonas syringae pv. syringae EPS94; assay type: cell-based; conditions: 48 h
Summary of the method: as §1

[7] = test system: X. axonopodis pv. vesicatoria; assay: Bactericidal activity (killing assay); assay type: cell-based, Xanthomonas axonopodis pv. vesicatoria; conditions: 5 μM peptide, LB broth, aliquots every 30 min during 3 h, viable counts; triplicates
Description: In a total volume of 5 mL, 4 mL of Luria-Bertani (LB) broth were mixed with 0.5 ml of a suspension of X. axonopodis pv. vesicatoria adjusted to 10^8 CFU mL^-1 and 0.5 mL of the peptide solution at 50 μM (final concentration at 5 μM). Aliquots of 500 μL were removed at 30-min intervals during 3 h and the appropriate dilutions were spread onto LB agar using a spiral plater (Eddy Jet; IUL instruments, Spain). Triplicates were performed and colonies were counted after 48 h of incubation at 25°C with an automatic counter (Flash and Go; IUL instruments, Spain) by incorporating the software CounterMat version 5.0.

[8] = test system: tobacco leaves; assay: Phytotoxicity by infiltration of tobacco leaves; assay type: in vivo; conditions: 250 μM, 100 μL infiltrated into mesophyll of tobacco leaves, 48 h after infiltration; at least three inoculations
Description: Peptide solutions of 50, 100, 150 and 250 μM were infiltrated (100 μL) into the mesophylls of fully expanded tobacco leaves. Six independent inoculations were carried out in a single leaf, and at least three independent inoculations were performed per peptide and concentration randomly distributed in diferent leaves and plants. Control infiltrations with water (negative control) or mellitin (positive control) at the same molar concentration were performed. The appearance of symptoms on the leaves was followed for 48 h after infiltration and measured as a lesion diameter.

[9] = PDB with 0.003% chloramphenicol, 20°C, seven days, OD 600 nm, tested at 3.1, 6.2, 12.5, 25, 50 μM, three replicates, repeated twice

Compound | MIC Ea [1] [µM] | MIC Fo [2, 9] [µM] | Hemolysis (%) 150 µM [3] [%] | Hemolysis (%) 250 µM [3] [%] | MIC against three pathogens [4] [µM] | MIC Xav [5] | MIC Pss [6] [µM] | Bactericidal activity (kinetics of survival) [7] | Phytotoxicity, size of the lesions (necrosis diameter) [8] | MIC Fo [2] [µM]
CCCC(=O)NCCCC[C@@H]1NC(=O)[C@H](CCCCN)NC(=O)[C@H](CC(C)C)NC(=O)[C@H](CCCCN)NC(=O)[C@H](CCCCN)NC(=O)[C@H](CCC(N)=O)NC(=O)[C@H](CC(C)C)NC(=O)[C@H](CCCCN)NC(=O)[C@H](CCCCN)NC(=O)[C@H](Cc2ccccc2)NC1=O [BPC500, c(KKLKK(CO-C3H7)FKKLQ)] (cyclo(FKKLQKKLKK(Butyryl))) | 12.5 to 25 | <3.1 | 28 ± 5 | 38 ± 4 | < 12.5 | <3.1 µM | 6.2 to 12.5 | bactericidal activity |  | 
CCCCCC(=O)NCCCC[C@@H]1NC(=O)[C@H](CCC(N)=O)NC(=O)[C@H](CC(C)C)NC(=O)[C@H](CCCCN)NC(=O)[C@H](CCCCN)NC(=O)[C@H](Cc2c[nH]cn2)NC(=O)[C@H](CCCCN)NC(=O)[C@H](CCCCN)NC(=O)[C@H](CC(C)C)NC(=O)[C@H](CCCCN)NC1=O [BPC688] (cyclo(HKKLQK(Hexanoyl)KLKK)) | >50 | 12.5 to 25 | 1 ± 2 | 1 ± 0.2 |  | 25 to 50 µM | 25 to 50 |  | 0–0.38 cm | 
CCCC(=O)NCCCC[C@H]1NC(=O)[C@H](CCC(N)=O)NC(=O)[C@H](CC(C)C)NC(=O)[C@H](CCCCN)NC(=O)[C@H](CCCCN)NC(=O)[C@H](Cc2ccccc2)NC(=O)[C@H](CCCCN)NC(=O)[C@H](CCCCN)NC(=O)[C@H](CC(C)C)NC(=O)[C@H](CCCCN)NC1=O [BPC706] (cyclo(FKKLQ[dK](Butyryl)KLKK)) | 25 to 50 | 3.1 to 6.2 | 35 ± 3 | 46 ± 3 |  | 3.1 to 12.5 µM and 6.2 to 12.5 µM | 6.2 to 12.5 |  | 0–0.38 cm | 3.1 to 6.2
CCCC(=O)N[C@@H](CCCCN)C(=O)N[C@@H](CC(C)C)C(=O)NCCCC[C@@H]1NC(=O)[C@H](CCCCN)NC(=O)[C@H](CC(C)C)NC(=O)[C@H](CCCCN)NC(=O)[C@H](CCCCN)NC(=O)[C@H](CCC(N)=O)NC(=O)[C@H](CC(C)C)NC(=O)[C@H](CCCCN)NC(=O)[C@H](CCCCN)NC(=O)[C@H](Cc2c[nH]cn2)NC1=O [BPC728, c(KKLKK(LK-CO-C3H7)HKKLQ)] (cyclo(HKKLQKKLKK([Leu-Lys-Butyryl]))) | >50 | <3.1 | 0 |  |  | 6.2 to 12.5 µM | 12.5 to 25 | bactericidal activity |  | 
melittin [mellitin, reference compound] |  |  |  |  |  |  |  |  | around 2 cm | 
